According to ChEMBL document CHEMBL1124889, “Alfred Burger award address. Bioactive alkaloids. 4. Results of recent investigations with colchicine and physostigmine” (J Med Chem, 1990):

What was measured:
[1] = target: T1, Acetylcholinesterase (Homo sapiens, UniProt P22303); assay: Inhibitory activity against Acetylcholinesterase in cortex; format: tissue-based
[2] = target: T2, Cholinesterase (Homo sapiens, UniProt P06276); assay: Inhibitory activity against Butyrylcholinesterase in cortex; format: tissue-based
T2 sequence (P06276 whole entry): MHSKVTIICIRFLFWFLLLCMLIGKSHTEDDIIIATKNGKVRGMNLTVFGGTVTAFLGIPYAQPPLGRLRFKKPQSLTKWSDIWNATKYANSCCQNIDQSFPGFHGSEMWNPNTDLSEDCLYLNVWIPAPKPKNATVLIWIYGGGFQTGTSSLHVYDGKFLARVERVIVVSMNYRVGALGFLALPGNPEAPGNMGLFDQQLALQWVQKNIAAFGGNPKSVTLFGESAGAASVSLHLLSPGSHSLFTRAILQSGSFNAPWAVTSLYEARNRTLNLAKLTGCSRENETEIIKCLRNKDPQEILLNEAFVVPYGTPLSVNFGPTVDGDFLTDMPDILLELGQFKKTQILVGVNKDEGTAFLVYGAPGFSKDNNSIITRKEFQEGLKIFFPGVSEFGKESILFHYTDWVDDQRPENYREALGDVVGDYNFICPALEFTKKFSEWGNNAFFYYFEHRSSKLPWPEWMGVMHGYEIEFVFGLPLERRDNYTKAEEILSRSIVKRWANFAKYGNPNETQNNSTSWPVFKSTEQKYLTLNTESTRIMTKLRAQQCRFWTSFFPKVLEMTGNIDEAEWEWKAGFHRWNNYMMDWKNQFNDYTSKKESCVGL

[3] = target: T2, Cholinesterase; assay: Inhibitory activity against Butyrylcholinesterase in plasma; format: cell-free
[4] = target: Acetylcholinesterase (Electrophorus electricus, UniProt O42275); assay: Inhibitory activity against Acetylcholinesterase in electric eel
Chain of Acetylcholinesterase (Electrophorus electricus, UniProt O42275) (O42275 whole entry): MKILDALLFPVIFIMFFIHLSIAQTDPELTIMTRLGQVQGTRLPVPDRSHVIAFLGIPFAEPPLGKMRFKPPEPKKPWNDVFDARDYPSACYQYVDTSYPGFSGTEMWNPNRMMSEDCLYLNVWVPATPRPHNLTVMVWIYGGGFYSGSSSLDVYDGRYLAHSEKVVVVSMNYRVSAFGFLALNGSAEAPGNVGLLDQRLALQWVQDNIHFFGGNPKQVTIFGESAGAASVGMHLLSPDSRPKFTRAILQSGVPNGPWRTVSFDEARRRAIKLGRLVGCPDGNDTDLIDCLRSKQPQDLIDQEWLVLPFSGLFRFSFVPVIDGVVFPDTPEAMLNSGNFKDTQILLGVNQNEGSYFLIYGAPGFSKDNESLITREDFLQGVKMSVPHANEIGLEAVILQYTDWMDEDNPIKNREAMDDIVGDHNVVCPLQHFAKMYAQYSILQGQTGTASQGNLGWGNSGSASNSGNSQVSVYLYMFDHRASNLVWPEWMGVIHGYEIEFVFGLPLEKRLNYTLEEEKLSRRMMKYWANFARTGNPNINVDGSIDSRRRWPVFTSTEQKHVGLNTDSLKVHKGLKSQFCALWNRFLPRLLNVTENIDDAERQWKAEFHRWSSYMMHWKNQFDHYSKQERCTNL

[5] = target: T1, Acetylcholinesterase; assay: Inhibitory activity against Acetylcholinesterase in erythrocyte

T1 sequence (P22303 whole entry): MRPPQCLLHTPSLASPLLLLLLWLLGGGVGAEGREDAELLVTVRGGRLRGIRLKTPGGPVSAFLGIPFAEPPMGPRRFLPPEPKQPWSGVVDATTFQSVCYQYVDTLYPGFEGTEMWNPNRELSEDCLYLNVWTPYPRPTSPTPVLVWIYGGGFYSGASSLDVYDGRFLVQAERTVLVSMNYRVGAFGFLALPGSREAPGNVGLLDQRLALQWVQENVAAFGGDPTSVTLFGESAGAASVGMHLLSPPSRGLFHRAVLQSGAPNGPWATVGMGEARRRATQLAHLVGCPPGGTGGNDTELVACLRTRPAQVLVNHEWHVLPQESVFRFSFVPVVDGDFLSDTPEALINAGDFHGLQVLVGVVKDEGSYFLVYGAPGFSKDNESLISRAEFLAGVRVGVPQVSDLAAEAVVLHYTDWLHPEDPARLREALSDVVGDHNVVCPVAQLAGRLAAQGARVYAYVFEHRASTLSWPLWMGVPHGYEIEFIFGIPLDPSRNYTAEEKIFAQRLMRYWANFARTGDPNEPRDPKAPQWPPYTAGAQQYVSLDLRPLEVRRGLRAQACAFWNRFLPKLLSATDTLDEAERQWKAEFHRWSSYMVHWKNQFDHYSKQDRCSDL

Row | SMILES | IC50 [1] [µM] | IC50 [2] [µM] | IC50 [3] [µM] | IC50 [4] [µM] | IC50 [5] [µM]
1 | CN(C)C(=O)Oc1ccc2c(c1)[C@]1(C)CCN(C)[C@@H]1N2C | 0.31 | 3 | 0.42 | 0.97 | 0.21
2 | CN1CC[C@@]2(C)c3cc(OC(=O)NC(C)(C)C)ccc3N(C)[C@@H]12 | 32 | 11 | 2 | > 10 | 23
3 | C=CCN1CC[C@@]2(C)c3cc(OC(=O)NC)ccc3N(C)[C@@H]12 |  | 0.016 | 0.003 |  | 
4 | COc1ccc(NC(=O)Oc2ccc3c(c2)[C@]2(C)CCN(C)[C@@H]2N3C)cc1 |  | 0.23 | 0.071 | 1.7 | 
5 | CNC(=O)Oc1ccc2c(c1)[C@]1(C)CCN(CCc3ccccc3)[C@@H]1N2C | 0.15 |  |  |  | 0.22
6 | CCCCCCCCNC(=O)Oc1ccc2c(c1)[C@]1(C)CCN(C)[C@@H]1N2C |  | 0.009 | 0.004 |  | 
